# Experiments:
# Assay in all cases: relative viability (nuclei count vs DMSO), 5 days (fraction); higher = more cells survive
# [1] = compound: C[C@@H](N)c1ccc(C(=O)Nc2ccnc3[nH]ccc23)cc1 + CS(=O)(=O)CCNCc1ccc(-c2ccc3ncnc(Nc4ccc(OCc5cccc(F)c5)c(Cl)c4)c3c2)o1 [Lapatinib] (partner 2 µM)
# Outline: (§1)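 Lung cancer cell lines were pin-tool dosed in 1536-well plates on the day after seeding, with either a lone drug or a fixed anchor-drug dose plus five library-drug doses (not always all listed) in √10 steps. Nuclei were counted on 4× images after 5 days. Relative viability is the ratio of treated-well to vehicle-well nuclei counts, with each value a median of duplicate plates.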
# [2] = compound: C[C@@H](N)c1ccc(C(=O)Nc2ccnc3[nH]ccc23)cc1 + C[C@@H](Oc1cc(-c2cnn(C3CCNCC3)c2)cnc1N)c1c(Cl)ccc(F)c1Cl [Crizotinib] (partner 1 µM)
# Outline: as §1
# [3] = compound: O[C@H]1CC[C@H](Nc2ncc3nc(Nc4c(F)cc(F)cc4F)n([C@H]4CCOC4)c3n2)CC1 [Tanzisertib] + Cc1nc(Nc2ncc(C(=O)Nc3c(C)cccc3Cl)s2)cc(N2CCN(CCO)CC2)n1 [Dasatinib] (partner 0.075 µM)
# Outline: as §1
Cell Line,relative viability ([1]; first compound 0.04 µM),relative viability ([1]; first compound 0.1265 µM),relative viability ([1]; first compound 0.4 µM),relative viability ([1]; first compound 4 µM),relative viability ([2]; first compound 0.04 µM),relative viability ([2]; first compound 0.1265 µM),relative viability ([2]; first compound 0.4 µM),relative viability ([2]; first compound 4 µM),relative viability ([3]; first compound 0.08 µM),relative viability ([3]; first compound 0.253 µM),relative viability ([3]; first compound 0.8 µM),relative viability ([3]; first compound 2.53 µM),relative viability ([3]; first compound 8 µM),relative viability ([1]; first compound 1.265 µM),relative viability ([2]; first compound 1.265 µM)
NCI-H1944,0.759,0.841,0.769,0.699,1.12,1.1,1.12,0.94,0.254,0.23,0.234,0.196,0.22,,
LK-2,1.06,0.693,0.975,0.733,0.227,0.251,0.224,0.218,0.281,0.287,0.318,0.28,0.207,0.814,
HCC-15,0.827,0.789,0.854,0.785,0.903,0.781,0.805,0.72,0.764,0.646,0.637,0.642,0.591,,
NCI-H727,0.863,0.957,1.02,0.989,1.04,1,1.21,0.842,0.489,0.286,0.403,0.349,0.271,0.513,1.19
HOP-62,0.929,0.784,1.02,0.982,0.685,0.798,0.908,0.709,0.733,0.654,0.659,0.644,0.569,0.512,0.853
NCI-H3122,0.966,1.04,1.08,0.981,0.286,0.295,0.264,0.303,0.775,0.817,0.791,0.92,0.926,0.875,0.346
NCI-H647,0.961,1.07,1.16,0.901,1.09,0.98,1.02,0.692,0.226,0.201,0.142,0.189,0.149,1.06,0.882
NCI-H650,0.626,0.837,0.859,0.696,0.66,0.639,0.745,0.587,0.44,0.463,0.443,0.47,0.309,,
EKVX,0.223,0.224,0.242,0.215,0.979,1.03,1.04,0.963,0.467,0.565,0.55,0.503,0.411,0.224,1.05
NCI-H460,0.974,1.1,0.984,1.03,1.1,0.943,0.966,0.603,0.595,0.595,0.489,0.474,0.303,1.12,0.516
LCLC-97TM1,1.53,1.45,1.65,1.36,0.32,0.322,0.463,0.638,0.953,0.878,0.831,0.786,0.901,0.83,0.961
COR-L23,0.948,1.01,0.897,0.576,0.64,0.741,0.647,0.17,0.527,0.473,0.491,0.494,0.396,0.895,0.412
NCI-H1355,0.973,0.972,1.03,0.924,1.04,1.09,1.19,0.941,0.757,0.757,0.78,0.628,0.707,,
NCI-H1666,0.724,0.618,0.967,0.928,1.12,0.967,1.22,1.33,0.821,0.843,0.755,0.841,0.955,0.835,1.16
EPLC-272H,1,0.914,1.1,0.668,0.922,0.891,0.957,0.61,0.416,0.373,0.367,0.359,0.333,,
NCI-H1651,1.04,0.859,0.975,0.967,0.921,0.822,0.916,0.837,0.378,0.522,0.378,0.336,0.417,0.784,0.898
SW 1573,1.3,1.14,1.18,1.08,0.792,0.816,0.777,0.765,0.595,0.662,0.46,0.552,0.513,1.04,0.65
PC-3 [JPC-3],0.538,0.545,0.505,0.536,0.969,0.931,1.01,0.917,0.912,1.04,1.01,0.977,0.886,0.529,1.1
LOU-NH91,0.701,0.749,0.801,0.709,0.691,0.727,0.691,0.635,0.597,0.585,0.564,0.515,0.391,0.575,0.668
PC-14,0.292,0.344,0.295,0.329,0.846,0.871,0.921,0.657,0.341,0.238,0.306,0.234,0.116,0.271,0.8
NCI-H2087,0.85,1.22,0.831,0.825,0.824,0.538,0.581,0.386,0.842,0.876,0.77,0.967,0.686,0.148,0.788
LU99A,1.1,1.09,1.13,0.906,0.55,0.558,0.58,0.47,0.585,0.629,0.556,0.557,0.496,0.753,0.462
BEN,0.706,0.675,0.99,0.438,0.952,0.828,0.918,0.675,0.306,0.374,0.442,0.355,0.32,0.781,1.09
SK-LU-1,0.847,0.85,0.906,0.779,0.926,0.964,0.779,0.5,0.212,0.165,0.18,0.148,0.165,0.828,0.757
NCI-H1975,0.833,0.765,0.922,0.546,1.02,0.961,0.944,0.727,0.421,0.446,0.365,0.356,0.329,0.88,0.873
RERF-LC-KJ,0.906,0.837,0.931,0.869,0.808,0.893,0.788,0.684,0.95,0.814,0.912,0.685,0.744,0.902,0.858
HCC-78,1.3,0.767,1.15,0.677,0.383,0.347,0.363,0.32,0.469,0.54,0.3,0.325,0.255,0.171,0.453
NCI-H1915,0.908,0.972,0.966,0.848,0.911,0.886,0.929,0.81,0.319,0.316,0.321,0.301,0.283,,
